Experimental data from patent US20260355171A1, “INHIBITORS AND USES THEREFOR” (priority 2022, published 2026).

Tests used:
primary neurons [1] = experiment: Neuronal cell death in the presence of H2O2; assay type: cell-based, mouse; settings: 1 or 10 μM compound, 100 μM H2O2
Description: (§1) Primary neurons were treated with 0.4, 1, 2, 10 or 50 μM of compound 2 or compound 22 (prepared according to Example 2). NSP5 was added to primary neurons at DIV11, and compound 2 or 22 was added 48 hours later. Cells were treated with propidium iodide 48 hours after compound addition. Cells were washed with PBS and fixed with 4% PFA. Cells were then washed and stained with DAPI. Images of cells were taken with ZEISS Axioscan 7 microscope slide scanner. Cell death was determined by Image J analysis, counting the death cell (red, PI)) vs all cells (blue, DAPI).
(§2) One hour after compound addition (1 or 10 μM of compound 2 or compound 22) neurons were treated with a cytotoxic agent (100 μM N-methyl-D-aspartate (NMDA), 100 μM H2O2 or 5 μM staurosporine). One hour after treatment with the cytotoxic agent, the media was replaced with fresh media and the neurons were incubated for 24 hours. A final concentration of 1 μM propidium iodide (PI) was added into the well and incubated for 5 mins. Cells were washed with phosphate-buffered saline (PBS) and then fixed with 4% PFA. Cells were then washed and stained with DAPI, and cell death determined as described above.

primary neurons [2] = experiment: Neuronal cell death in the presence of NMDA; assay type: cell-based, mouse; settings: 1 or 10 μM compound, 100 μM NMDA
Description: as §1, §2

primary neurons [3] = experiment: Neuronal cell death in the presence of staurosporine; assay type: cell-based, mouse; settings: 1 or 10 μM compound, 5 μM staurosporine
Description: as §1, §2

[4] = system: primary neurons expressing SARS-CoV-2 NSP5 (AAV9-NSP5-V5); experiment: Effect on neurons in the presence of NSP5 (AAV9-NSP5-V5, immunofluorescence); assay type: cell-based, mouse; settings: 0.4, 2, 10 or 50 μM, two days
primary neurons [5] = experiment: Cytotoxicity / neuronal cell death in the presence of NSP5 (PI/DAPI)
primary neurons [6] = experiment: Effect of compounds on neuronal cell death caused by NSP5 (Example 6); assay type: cell-based, mouse; settings: 10 μM, 48 hours

Structure (SMILES) | Protection from H2O2-induced neurotoxicity (primary neurons [1]) | Protection from NMDA-induced neurotoxicity (primary neurons [2]) | Protection from staurosporine-induced neurotoxicity (primary neurons [3]) | Prevention of NSP5-induced neuronal death [4] | Reduction of neuronal cell death caused by NSP5 (primary neurons [5]; 0.4, 1, 2, 10 or 50 μM, 48 hours) | Cell death caused by compound (primary neurons [5]; therapeutic concentrations (nM to low μM)) | Reduction of neuronal cell death caused by NSP5 (primary neurons [6])
NC(=O)C1CCN(c2ncccc2CNC(=O)c2cccc3ccsc23)CC1 [Compound 2] | did not protect | did not protect | did not protect | prevented NSP5-induced neuronal death in a dose-dependent manner | selectively reduced neuronal cell death caused by NSP5 | did not cause any cell death | –
NC(=O)C1CCN(c2ncccc2CNC(=O)c2cc(F)cc(C(F)(F)F)c2)CC1 [Compound 35] | – | – | – | – | – | – | greatest activity
